Patent US20140350050A1, “PYRIDINE COMPOUNDS AS INHIBITORS OF KINASE” (TELIGENE LTD., priority 2011, published 2014)
Like-named read-outs stand apart in the source and are kept apart here.

Key:
[1] = biological target: T1, BAF3-EML4-ALK stable cell line (Homo sapiens, UniProt Q9UM73); assay: BAF3-EML4-ALK cell assay (MTT cell proliferation); assay type: cell-based; conditions: 72 hours, read-out: BAF3-EML4-ALK Cell (IC50 grading)
T1 construct: fused on or other part: Q9HC35 (Echinoderm microtubule-associated protein-like 4)
Description: BAF3-EML4-ALK Cell Assay:
A method of establishing BAF3-EML4-ALK stable cell line: Transfer 5×10^6 BAF3 cells to a new tube, pellet the cells, and remove PBS by aspiration.; Resuspend the cells in 1 ml electroporation buffer, this provides 5×10^6 of cells; Transfer 200 μl of cell suspension to EP tube, add 5 ug DNA, flip and place it on ice for 10 min; Pipet the 200 μl cell suspension into 2 mm electroporation cuvette; Place the cuvette into shockpod, close the lid, and press the PULSE button; Set parameters: Expentional decay pulse: VOL=200 V; CAP=900 uF, RES=1000Ω; Transfer all cells from electroporation cuvette to 6 well plate, adding 2 ml DMEMF12 containing 5 ng/ml IL3, 24 h later, replace the medium with DMEM F12 containing 2 μg/ml blasticidin S and 5 ng/ml IL3, maintain for 3 days; change the medium with DMEM F12 containing 2 ug/ml blasticidin S and 2.5 ng/ml IL3, maintain 3 days; change the medium with DMEM F12 containing 2 ug/Ml blasticidin S, maintain to culture.
MTT Cell proliferation assay: 5×10^3 per well cell with 100 μl medium was seeded in 96-well plate; 24 hours later, 100 μl fresh medium with various concentration of compounds; After the cells were treated by compounds for 72 hours, add 20 μl MTT (5 mg/ml) into each wells; The plate is incubated at 37° C. for 4 hours; Centrifuge the plate at 800 g for 10 mins, Aspirated the medium, add 150 μl DMSO into each well. Shake plates gently for 10 mins, Measure the absorbance at 570 nm on plate reader; IR=(WC−WT)/WC.

ALK kinase = ALK kinase (Homo sapiens, UniProt Q9UM73); assay: ALK kinase assay; assay type: biochemical
Description: An in vitro assay which determines the ability of a test compound to inhibit ALK kinase. a) kinase-tagged T7 phage strains were prepared in an E. coli host derived from the BL21 strain. E. coli were grown to log-phase and infected with T7 phage and incubated with shaking at 32° C. until lysis. The lysates were centrifuged and filtered to remove cell debris. The remaining kinases were produced in HEK-293 cells and subsequently tagged with DNA for qPCR detection. […] The liganded beads were blocked with excess biotin and washed with blocking buffer (SeaBlock (Pierce), 1% BSA, 0.05% Tween 20, 1 mM DTT) to remove unbound ligand and to reduce non-specific binding. […] All reactions were performed in polystyrene 96-well plates in a final volume of 0.135 ml. […] The kinase concentration in the eluates was measured by qPCR. […]
b) An alternative method to conduct the kinase assay with the following condition and procedure: Reagent: Base Reaction buffer; 20 mM Hepes (pH 7.5), 10 mM MgCl2, 1 mM EGTA, 0.02% Brij35, 0.02 mg/ml BSA, 0.1 mM Na3VO4, 2 mM DTT, 1% DMSO.
1. Preparing indicated substrate in freshly prepared Base Reaction Buffer
2. Delivering any required cofactors to the substrate solution above
3. Delivering indicated kinase into the substrate solution and gently mix
4. Delivering compounds in DMSO into the kinase reaction mixture
5. Delivering ^33P-ATP (specific activity 0.01 μCi/μl final) into the reaction mixture to initiate the reaction.
6. Incubating kinase reaction for 120 min. at room temperature
7. Reactions are spotted onto P81 ion exchange paper (Whatman #3698-915)
8. Washing filters extensively in 0.75% Phosphoric acid. […]
c) An alternative method to conduct the kinase assay with the following condition and procedure: The assay was performed using Kinase-Glo Plus luminescence kinase assay kit (Promega). It measures kinase activity by quantitating the amount of ATP remaining in solution following a kinase reaction. The luminescent signal from the assay is correlated with the amount of ATP present and is inversely correlated with the amount of kinase activity.
The compound were diluted in 10% DMSO and 5 μl of the dilution was added to a 50 μl reaction so that the final concentration of DMSO is 1% in all of reactions. All of the enzymatic reactions were conducted at 30° C. for 40 minutes. The 50 μl reaction mixture contains 40 mM Tris, pH 7.4, 10 mM MgCl2, 0.1 mg/ml BSA, 1 mM DTT, 0.2 mg/ml substrate peptide, 10 μM ATP and ALK (Table 2.3.1). After the enzymatic reaction, 50 μl of Kinase-Glo Plus Luminescence kinase assay solution (Promega) was added to each reaction and incubate the plate for 5 minutes at room temperature. Luminescence signal was measured using a BioTek Synergy 2 microplate reader. ALK activity assays were performed in duplicate at each concentration. The luminescence data were analyzed using the computer software, Graphpad Prism. The difference between luminescence intensities in the absence of ALK (Lut) and in the presence of ALK (Luc) was defined as 100% activity (Lut−Luc). Using luminescence signal (Lu) in the presence of the compound, % activity was calculated as % activity={(Lut−Lu)/(Lut−Luc)}×100%, where Lu=the luminescence intensity in the presence of the compound (all percent activities below zero were shown zero in the table). The values of % activity versus a series of compound concentrations were then plotted using non-linear regression analysis of Sigmoidal dose-response curve generated with the equation Y=B+(T−B)/1+10^((Log EC50−X)×Hill Slope), where Y=percent activity, B=minimum percent activity, T=maximum percent activity, X=logarithm of compound and Hill Slope=slope factor or Hill coefficient. The IC50 value was determined by the concentration causing a half-maximal percent activity.

ALK kinase, sequence (Q9UM73 19-1620): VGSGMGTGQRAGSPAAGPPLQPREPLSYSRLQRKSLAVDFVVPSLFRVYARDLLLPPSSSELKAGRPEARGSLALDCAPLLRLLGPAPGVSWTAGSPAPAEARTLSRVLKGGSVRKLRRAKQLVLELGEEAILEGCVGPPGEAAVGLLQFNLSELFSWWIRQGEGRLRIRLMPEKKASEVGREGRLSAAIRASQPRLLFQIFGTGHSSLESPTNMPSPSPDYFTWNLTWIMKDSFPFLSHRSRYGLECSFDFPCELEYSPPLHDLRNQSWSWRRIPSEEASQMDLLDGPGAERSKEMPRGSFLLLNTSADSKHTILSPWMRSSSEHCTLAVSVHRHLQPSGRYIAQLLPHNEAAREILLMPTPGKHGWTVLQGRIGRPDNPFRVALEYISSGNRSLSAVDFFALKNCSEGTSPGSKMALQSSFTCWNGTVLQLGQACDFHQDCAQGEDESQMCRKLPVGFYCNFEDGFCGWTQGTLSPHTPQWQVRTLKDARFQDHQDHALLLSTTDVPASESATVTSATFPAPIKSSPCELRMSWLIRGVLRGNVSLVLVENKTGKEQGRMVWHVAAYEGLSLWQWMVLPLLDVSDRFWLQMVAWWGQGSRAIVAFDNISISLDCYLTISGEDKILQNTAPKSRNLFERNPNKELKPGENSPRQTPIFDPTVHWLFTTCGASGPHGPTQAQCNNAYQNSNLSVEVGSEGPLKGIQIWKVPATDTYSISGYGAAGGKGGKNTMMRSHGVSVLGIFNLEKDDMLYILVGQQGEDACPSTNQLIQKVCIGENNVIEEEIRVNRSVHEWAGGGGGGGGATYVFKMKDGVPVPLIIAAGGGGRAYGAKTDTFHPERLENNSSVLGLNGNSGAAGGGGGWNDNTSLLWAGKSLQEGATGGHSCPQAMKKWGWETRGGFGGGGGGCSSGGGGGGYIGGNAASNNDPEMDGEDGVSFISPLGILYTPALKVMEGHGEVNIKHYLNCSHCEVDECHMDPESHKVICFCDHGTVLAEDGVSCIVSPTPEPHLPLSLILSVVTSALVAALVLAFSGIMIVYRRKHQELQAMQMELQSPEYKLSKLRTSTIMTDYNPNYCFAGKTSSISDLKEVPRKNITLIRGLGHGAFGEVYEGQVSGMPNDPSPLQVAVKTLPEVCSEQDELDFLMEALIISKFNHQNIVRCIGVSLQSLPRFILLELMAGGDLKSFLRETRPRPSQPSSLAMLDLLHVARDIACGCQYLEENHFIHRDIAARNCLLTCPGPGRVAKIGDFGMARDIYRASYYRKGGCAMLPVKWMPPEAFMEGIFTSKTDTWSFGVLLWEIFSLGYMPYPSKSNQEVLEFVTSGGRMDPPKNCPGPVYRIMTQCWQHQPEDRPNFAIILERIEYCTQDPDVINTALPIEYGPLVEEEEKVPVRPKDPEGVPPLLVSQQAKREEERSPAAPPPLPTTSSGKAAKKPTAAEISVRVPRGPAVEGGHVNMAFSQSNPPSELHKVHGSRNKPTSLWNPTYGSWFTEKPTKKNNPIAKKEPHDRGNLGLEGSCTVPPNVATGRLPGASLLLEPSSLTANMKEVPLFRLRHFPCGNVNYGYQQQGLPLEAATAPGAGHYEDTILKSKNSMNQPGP
T1 sequence (Q9UM73 whole entry, change not shown, the tested form may be a part): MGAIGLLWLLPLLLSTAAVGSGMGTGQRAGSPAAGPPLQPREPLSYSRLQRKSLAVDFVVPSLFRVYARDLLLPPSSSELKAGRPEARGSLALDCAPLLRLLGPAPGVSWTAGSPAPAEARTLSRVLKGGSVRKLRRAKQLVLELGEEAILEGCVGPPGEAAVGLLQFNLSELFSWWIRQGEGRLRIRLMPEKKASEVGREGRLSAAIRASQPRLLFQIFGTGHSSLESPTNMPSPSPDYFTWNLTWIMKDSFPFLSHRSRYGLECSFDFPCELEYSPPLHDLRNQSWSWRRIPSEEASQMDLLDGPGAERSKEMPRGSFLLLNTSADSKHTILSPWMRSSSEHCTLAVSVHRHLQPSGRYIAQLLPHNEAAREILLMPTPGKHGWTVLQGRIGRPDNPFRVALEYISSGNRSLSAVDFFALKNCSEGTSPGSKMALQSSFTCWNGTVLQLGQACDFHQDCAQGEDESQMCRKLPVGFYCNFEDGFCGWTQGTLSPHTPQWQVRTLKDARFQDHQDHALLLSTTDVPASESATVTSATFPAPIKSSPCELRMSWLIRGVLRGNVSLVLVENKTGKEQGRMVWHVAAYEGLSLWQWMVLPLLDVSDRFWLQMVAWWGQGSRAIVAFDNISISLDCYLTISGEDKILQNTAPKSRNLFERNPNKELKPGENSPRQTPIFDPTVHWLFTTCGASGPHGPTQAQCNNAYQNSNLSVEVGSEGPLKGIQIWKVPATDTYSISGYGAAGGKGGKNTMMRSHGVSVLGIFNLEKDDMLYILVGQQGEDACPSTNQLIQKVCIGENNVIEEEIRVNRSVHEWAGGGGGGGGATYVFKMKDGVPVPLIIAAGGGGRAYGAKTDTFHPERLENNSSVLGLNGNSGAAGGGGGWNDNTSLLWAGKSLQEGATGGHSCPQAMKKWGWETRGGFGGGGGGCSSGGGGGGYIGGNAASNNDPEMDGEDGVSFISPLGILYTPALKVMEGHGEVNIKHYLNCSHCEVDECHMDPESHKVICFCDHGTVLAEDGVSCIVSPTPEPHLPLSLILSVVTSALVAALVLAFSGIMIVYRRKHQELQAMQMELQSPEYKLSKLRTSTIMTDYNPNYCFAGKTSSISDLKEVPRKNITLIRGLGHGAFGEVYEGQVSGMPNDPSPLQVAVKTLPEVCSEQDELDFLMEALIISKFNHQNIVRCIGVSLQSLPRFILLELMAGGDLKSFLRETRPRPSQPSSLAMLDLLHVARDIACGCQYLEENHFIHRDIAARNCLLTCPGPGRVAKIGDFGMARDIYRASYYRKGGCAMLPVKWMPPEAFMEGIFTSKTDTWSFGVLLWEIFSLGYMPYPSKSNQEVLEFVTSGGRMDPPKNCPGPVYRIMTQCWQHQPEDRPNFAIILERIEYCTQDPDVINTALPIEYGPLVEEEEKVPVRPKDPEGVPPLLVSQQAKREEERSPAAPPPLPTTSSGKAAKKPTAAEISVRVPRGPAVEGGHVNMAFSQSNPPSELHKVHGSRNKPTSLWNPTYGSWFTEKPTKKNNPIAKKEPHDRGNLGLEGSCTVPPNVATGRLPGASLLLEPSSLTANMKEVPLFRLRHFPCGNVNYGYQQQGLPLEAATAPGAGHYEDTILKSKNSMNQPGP

- GI50 [1]: ≤ 100 nM
- IC50 (ALK kinase; ALK kinase assay, read-out: ALK (IC50 grading)): ≤ 100 nM
- IC50 (ALK kinase; read-out: IC50 in the ALK kinase assay): 1.35 nM
Structure (SMILES): [2H]C([2H])([2H])C([2H])([2H])N1CCC(n2cc(-c3cnc(N)c(O[C@H](C)c4c(Cl)ccc(F)c4Cl)c3)cn2)CC1 [Compound 22, (R)-3-(1-(2,6-dichloro-3-fluorophenyl)ethoxy)-5-(1-(1-d5-ethylpiperidin-4-yl)-1H-pyrazol-4-yl)pyridin-2-amine]
